Assay results from patent US9820923B2, “Succinate derivatives” (Symrise AG, priority 2013, dated 2017).

Columns and labels:
[1] = tested on: Heme Oxygenase-1; assay: Cellular in vitro heme oxygenase-1 expression assay on NHDF (Western blot); assay type: cell-based, human; conditions: 24 h, 0.0134% b.w.
Procedure: NHDF (normal human dermal fibroblasts) cells were disseminated in a 6-well plate in a concentration of 2×10^5 cells/well (DMEM, 10% FCS). After cultivation in fully enriched medium (DMEM, 10% FCS) for 72 h at 37° C. and 5% CO2, the serum content was reduced to 0.1% to synchronize the cell cycle. Various concentrations of the test substances, the negative control (untreated cells) and tert. butylhydrochinon as positive control, are added and incubated for a further 24 h. The maximum concentration of the test substances used corresponds to 0.2 times the value of the IC20 of the cytotoxicity assay. After cell lysis, the protein amount was determined using the Biorad BCA assay. All samples were adjusted to the same protein level before application on a fast Criterion Gel (Biorad) to perform electrophoresis for 20 minutes at 300 V. Thereafter the proteins were transferred to a PVDF membrane on a semi-dry blotter (30 minutes, 25 V). The blotted membrane is blocked for 4 hours in a 5% milk powder solution in TBST at 4° C. After washing, the membrane is incubated with the first antibody solution HO-1 from abcam (1:500 in 1% milk powder in TBST) over night. […] The resulting band pattern is detected with a chemiluminescence sensitive camera system (Vil-ber Loumat). The quantification was done by densitometry, using the Image J freeware software.

[2] = tested on: HHFSC (Human Hair Follicle Stem Cells); assay: Cellular in vitro stem cell protection assay (UVB-induced apoptosis, caspase 3/7); assay type: cell-based; conditions: light or radiation study, 25 mJ/cm^2 UVB, read-out: Inhibition of UV induced apoptosis [%]
Procedure: HHFSC (Human Hair Follicle Stem Cells) isolated from hair follicle bulge (Celprogen) were cultivated in culture ware pre-coated with Human Hair Follicle Stem Cell Extra-cellular Matrix (Celprogen). The cells were incubated 2 h prior to and 16 h after UVB irradiation with test compounds. Cells were irradiated with 25 mJ/cm^2 UVB in the presence of buffer solution. Apoptosis induction was evaluated by caspase 3/7 protein expression (Caspase-Glo 3/7, Promega) and quantified by chemiluminescence measurement.
The inhibition of apoptosis induction in the presence of test substances was calculated according to the following equation: […]
The abbreviations have the following meanings: • RLU test substance: • RLU of the wells with test substance and with UVB irradiation • RLU control: • RLU of the wells without test substance, but with UVB irradiation • RLU control without UVB: • RLU of the wells without test substance and without UVB irradiation

[3] = tested on: Hyaluronic acid; assay: Cellular in vitro hyaluronic acid assay on NHDF (competitive ELISA); assay type: cell-based, human; conditions: 72 h
Procedure: NHDF (normal human dermal fibroblasts) cells were disseminated in a 96-well microtiter plate in a concentration of 2×10^4 cells/well (DMEM, 10% FCS). After cultivation in fully enriched medium (DMEM, 10% FCS) for 72 h at 37° C. and 5% CO2, the serum content was reduced to 0.1% to synchronize the cell cycle and incubated for further 24 h. Various concentrations of the test substances and TGF-beta1 as internal standard are added and incubated for 72 h. The maximum concentration of the test substances used corresponds to 0.2 times the value of the IC20 of the cytotoxicity assay. Hyaluronic acid is quantified by a competitive ELISA (TECOmedical TE1017).
The percent bound for each standard and unknown substance is calculated using the following equation: […]
A standard curve is generated by plotting the aborptions of the given concentrations in a linear proportion. The gradient of the line is determined and the value of the substances calculated as follows: • 1. value=1/RFU • 2. value=((1. value)−b)/m) • Compound of Hyaluronic acid [ng/ml]=2. value*dilution

[4] = tested on: Primary human dermal fibroblasts; assay: Cellular in vitro DCF assay (intracellular ROS); assay type: cell-based; design: unit of the concentration uncertain
Procedure: Primary human dermal fibroblasts (Lonza) are disseminated in a 96-well microtiter plate in a concentration of 1×10^4 cells/well (DMEM, 10% FKS). After cultivation in fully enriched medium (DMEM, 10% FCS) for 24 h at 37° C. and 5% CO2, the serum content was reduced to 0.1% for further 24 h to synchronize the cell cycle. Confluence was supposed to be around 70% at the time, the incubation with the test substances began. Various concentrations of the test substances, two backgrounds (untreated cells), control (possible with solvent) and Trolox as internal standard (1000 μM) were applied to the cells in DMEM and incubated for further 18-20 h. […], 100 μl H2DCF-DA-solution (2,7-Dichlorfluorescein, 10 μM) incl. DAPI (1:1000) was added to all samples (excluded the background-control) and incubated for one hour to de-esterify the H2DCF-DA by cellular esterases. The resulting H2DCF was thereby trapped inside the cell. After the incubation, the cells were washed and the prooxidant challenge was set (1 mM, 1 h). The resulting fluorescence was read at Ex 504 nm; Em 524 nm. An increased level of ROS (reactive oxygen species) led to an increased amount of fluorescence.
Results are mean values from 2 independent experiments with quadruple determinations each.
The inhibition of the oxidation in the presence of test substances was calculated according to the following equation: […]
The abbreviations have the following meanings: • RFU DAPI: Relative fluorescence units (Ex 380/20, Em 440/40) of the wells with test substance, DAPI and DCF treatment, with cells • RFU DCF: Relative fluorescence units (Ex 485/20, Em 528/20) of the wells with test substance, DAPI and DCF treatment, with cells • RFU control: Relative fluorescence units of the wells without test substance, DAPI and DCF treatment, with cells (The control was calculated like the other samples.) • RFU BLANK: Relative fluorescence units of the wells without test substance, without DAPI and DCF treatment but with cells

[5] = tested on: B16V mouse melanoma cells; assay: Depigmentation effect on melanoma cell cultures; assay type: cell-based; conditions: 0.6 mM tyrosine and 10 nM MSH, 96 h, read-out: IC50 (Inhibition of pigmentation)
Procedure: B16V mouse melanoma cells are disseminated in a 96-well micro-titre plate in a concentration of 7.5×10^3 cells/well. After cultivation for 24 h at 37° C. and 5% CO2 in RPMI medium, enriched with 10% foetal calf serum, various concentrations of the test substances and 0.6 mM tyrosine and 10 nM-MSH (-melanocyte stimulating hormone) are added and incubated for a further 96 h. The maximum concentration of the test substances used corresponds to 0.1 times the value of the IC20 value of the cytotoxicity assay. Only tyrosine and -MSH are added to the controls. After incubation, sodium hydroxide solution (final concentrations: 1 M) is added to the culture medium and the absorption (A) is measured after 3 h at 400 nm.
The inhibition of pigmentation in the presence of the test compounds was calculated using the following equation: Inhibition of pigmentation (%)=100−[(Atest compound/Acontrol)×100] wherein • Atest compound=absorption of the wells with test substance and with cells • Acontrol=absorption of the wells without test substance, but with cells
From the inhibition of pigmentation (%) in a series of dilutions of test compounds, the IC50 for each test compound is calculated. This is the concentration of a test compound at which pigmentation is inhibited by 50%.

CC1CC(OC(=O)CCC(=O)N(C)C)CC(C)(C)C1 (stereo not shown) [S7a/S7b**] was tested, and the “Up-regulation (HO1-Amount relative to control)” value [1] was 14.5-fold, the inhibition at 20 µM ([2]; 0.02 mM) was 5% and the inhibition at 200 µM ([2]; 0.20 mM) was 32%. The “Stimulation (Hyaluronic acid stimulation relative to control)” value ([3]; 0.00012 % b.w.) was 34.4%, the “Stimulation (Hyaluronic acid stimulation relative to control)” value ([3]; 0.00120 % b.w.) was 67.3% and the “Intracellular ROS reduction [%]” value ([4]; concentration 1 (unit uncertain)) was −2%. For the same compound, the “Intracellular ROS reduction [%]” value ([4]; concentration 10 (unit uncertain)) was 11%, the “Intracellular ROS reduction [%]” value ([4]; concentration 50 (unit uncertain)) was 16.3% and the “Intracellular ROS reduction [%]” value ([4]; concentration 100 (unit uncertain)) was 19.5%. The IC50 [5] was 18.4 µM.
